Source: article doi:10.1101/2023.02.27.530254, “Large library docking for cannabinoid-1 receptor agonists with reduced side effects” (bioRxiv, 2024)
Read-outs that look alike come from different tables or passages of the source.

What was measured:
CB1 = target: T1, CB1 (Rattus norvegicus, UniProt P20272); experiment: Radioligand competition binding with [3H]-CP-55,940, rat brain membranes; details: for Emax / rCB1 binding Emax [SEM]: maximal radioligand displacement; for Emax: read-out: rCB1 binding Emax [SEM]; for Ki / rCB1 binding pKi [95% CI]: [3H]-CP-55,940 competition, rat brain membranes; for % [3H]-CP-55,940 displacement (mean) from single point screen: screens at 10 μM (white cells), 1 μM (orange) or 300 nM (green), cell colours not visible
T1 construct: membrane preparations from rat brain (source of CB1); tissue Bioivt RAT00BRAINMZN; host or cells: rat brain
T1 sequence (P20272 whole entry): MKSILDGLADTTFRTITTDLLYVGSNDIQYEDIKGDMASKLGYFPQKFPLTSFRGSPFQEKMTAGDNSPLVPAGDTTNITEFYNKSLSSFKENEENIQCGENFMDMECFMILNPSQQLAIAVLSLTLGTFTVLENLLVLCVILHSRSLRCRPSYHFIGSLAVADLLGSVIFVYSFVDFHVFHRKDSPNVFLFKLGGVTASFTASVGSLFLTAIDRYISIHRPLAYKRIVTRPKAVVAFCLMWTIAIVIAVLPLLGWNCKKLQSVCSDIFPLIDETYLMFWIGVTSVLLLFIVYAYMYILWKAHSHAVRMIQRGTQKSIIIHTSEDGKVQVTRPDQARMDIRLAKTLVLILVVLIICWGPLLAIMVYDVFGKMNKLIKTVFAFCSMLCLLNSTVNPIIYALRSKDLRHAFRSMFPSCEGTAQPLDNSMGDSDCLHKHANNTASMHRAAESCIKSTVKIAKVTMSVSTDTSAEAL
Procedure: The results were analyzed using nonlinear regression to determine the IC50 and Ki values for each ligand (Prism by GraphPad Software, Inc., San Diego, CA). The Ki values are expressed as the mean of two to three experiments each performed in triplicate.

hCB1 = hCB1 (Homo sapiens, UniProt P21554); experiment: bioSens-All ebBRET effector biosensor signaling profiling, HEK293; assay type: cell-based; design: host or cells: HEK293 (HEK293SL clone), transient
Sequence of hCB1 (P21554 whole entry, the tested form may be a part): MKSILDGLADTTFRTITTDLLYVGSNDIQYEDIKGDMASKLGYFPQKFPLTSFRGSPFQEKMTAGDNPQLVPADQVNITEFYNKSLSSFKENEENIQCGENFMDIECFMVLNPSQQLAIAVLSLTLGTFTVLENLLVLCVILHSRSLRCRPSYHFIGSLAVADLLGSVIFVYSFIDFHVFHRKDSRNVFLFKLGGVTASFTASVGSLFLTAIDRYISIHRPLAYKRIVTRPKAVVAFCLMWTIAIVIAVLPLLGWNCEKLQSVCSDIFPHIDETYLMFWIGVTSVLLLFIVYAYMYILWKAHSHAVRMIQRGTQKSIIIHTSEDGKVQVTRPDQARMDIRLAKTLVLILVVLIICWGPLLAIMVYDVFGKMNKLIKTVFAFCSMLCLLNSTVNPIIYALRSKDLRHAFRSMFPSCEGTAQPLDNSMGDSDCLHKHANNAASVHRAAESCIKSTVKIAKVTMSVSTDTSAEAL
Procedure: (§1) ebBRET-based effector membrane translocation biosensor assays were conducted at Domain Therapeutics NA Inc. (Montreal, QC, Canada) as previously described. […] HEK293 cells were maintained in Dulbecco’s Modified Eagle Medium (DMEM) (Wisent) supplemented with 1% penicillin- streptomycin (Wisent) and 10% (or 2 % for transfection) fetal bovine serum (Wisent) at 37°C with 5% CO2. All biosensor-coding plasmids and related information are the property of Domain Therapeutics NA Inc. The total amount of transfected DNA was adjusted and kept constant at 1 μg per mL of cell culture to be transfected using salmon sperm DNA (Invitrogen) as ‘carrier’ DNA, PEI (polyethylenimine 25 kDa linear, PolyScience) and DNA (3:1 ml PEI:mg DNA ratio) were first diluted separately in 150 mM NaCl then mixed and incubated for at least 20 minutes at room temperature to allow for the formation of DNA/PEI complexes. During the incubation, HEK293 cells were detached, counted, and re-suspended in maintenance medium to a 350,000 cells per mL density. At the end of the incubation period, the DNA/PEI mixture was added to the cells. Cells were finally distributed in 96-well plates (White Opaque 96-well /Microplates, Greiner) at a density of 35,000 cells per well. Forty-eight hours post-transfection, medium was aspirated and replaced with 100 μl of Hank’s Balanced Salt Solution buffer (HBSS) (Wisent) per well using 450-Select TS Biotek plate washer. After 60 min incubation in this medium, 10 μL of 10 μM e-Coelenterazine Prolume Purple (Methoxy e-CTZ) (Nanolight) was added to each well for a final concentration of 1 μM immediately followed by addition of increasing concentrations of the test compounds to each well using the HP D300 digital dispenser (Tecan). All compounds were assayed at 22 concentrations with each biosensor after a 10-minute room temperature incubation period. […] All BRET ratios were standardized using the universal BRET (uBRET) equation: uBRET=BRETratio-A/B-A×10,000 where A is the BRET ratio obtained from transfection of negative control and B is the BRET ratio obtained from transfection of positive control. […] The data were analyzed using the four-parameter logistic non-linear regression model in GraphPad Prism 9.1 and data were presented as means ± CIs of 1–4 independent experiments.
(§2) The SEM was calculated for the logEmax/EC50 ratios using the following equation: SEM=σ/n where σ is the standard deviation, and n is the number of experiments.

hCB2 = hCB2 (Homo sapiens, UniProt P34972); experiment: as above; assay type: cell-based; design: host or cells: HEK293 (HEK293SL clone), transient
Sequence of hCB2 (P34972 whole entry): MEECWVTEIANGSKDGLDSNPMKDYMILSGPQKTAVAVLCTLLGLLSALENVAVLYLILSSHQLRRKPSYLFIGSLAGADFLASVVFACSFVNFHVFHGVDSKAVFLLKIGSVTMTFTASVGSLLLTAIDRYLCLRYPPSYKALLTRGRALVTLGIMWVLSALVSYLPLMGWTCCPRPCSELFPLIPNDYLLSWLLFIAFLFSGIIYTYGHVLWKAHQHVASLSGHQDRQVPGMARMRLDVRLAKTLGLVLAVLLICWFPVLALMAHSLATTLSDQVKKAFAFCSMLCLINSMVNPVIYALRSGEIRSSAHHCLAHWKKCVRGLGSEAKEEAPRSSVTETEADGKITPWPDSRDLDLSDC
Procedure: as §1, §2

[1] = HEK293, read-out: hCB1 Gi1 Emax [95% CI]
[2] = HEK293, read-out: hCB1 GoB Emax [95% CI]
[3] = HEK293, read-out: hCB1 Gz Emax [95% CI]
[4] = read-out: rCB1 binding Ki [95% CI]
[5] = GoB sensor, normalized to CP-55,940
[6] = Gz sensor, normalized to CP-55,940

COC(=O)[C@@H](c1cccs1)N(C)C(=O)c1cc(C)n(-c2cccc(C(F)(F)F)c2)n1 [‘6000]
Emax (CB1): 96% | Ki (CB1; rCB1 binding Ki [95% CI]): 1460 nM

Cc1cc(C(=O)NC(C)(c2ccco2)c2ccco2)nn1-c1cccc(C(F)(F)F)c1 [‘4936]
Emax (CB1): 88% | Ki (CB1; rCB1 binding Ki [95% CI]): 7.5 nM

COC(=O)[C@H](c1cccs1)N(C)C(=O)c1cc(C)n(-c2cccc(C(F)(F)F)c2)n1 [‘1066]
Emax (CB1): 97% | Ki (CB1; rCB1 binding Ki [95% CI]): 1720 nM

Cc1cc(C(=O)NC(c2ccccc2)c2ccco2)nn1-c1cccc(C(F)(F)F)c1 (stereo not shown) [‘1081]
Emax (hCB1; [1]): 49% | Emax (hCB1; [2]): 45% | Emax (hCB1; [3]): 72% | EC50 (hCB1; hCB1 Gi1 EC50 [95% CI]): 150 nM | EC50 (hCB1; hCB1 GoB EC50 [95% CI], GoB sensor): 91.7 nM | EC50 (hCB1; hCB1 Gz EC50 [95% CI]): 225 nM | EC50 (hCB1; hCB1 Gz pEC50 [95% CI]): 200 nM | Emax (CB1): 96% | Ki (CB1; rCB1 binding Ki [95% CI]): 116 nM

CC(=O)C(c1cccs1)N(C)C(=O)c1cc(C)n(-c2cccc(C(F)(F)F)c2)n1 (stereo not shown) [‘6829]
Emax (hCB1; [1]): 68% | Emax (hCB1; [2]): 49% | Emax (hCB1; [3]): 70% | EC50 (hCB1; hCB1 Gi1 EC50 [95% CI]): 4060 nM | EC50 (hCB1; hCB1 GoB EC50 [95% CI]): 1010 nM | EC50 (hCB1; hCB1 Gz EC50 [95% CI]): 1350 nM | Emax (CB1): 106% | Ki (CB1; rCB1 binding Ki [95% CI]): 1050 nM

Cc1cc(C(=O)N(C)C(c2ccco2)c2ccco2)nn1-c1cccc(C(F)(F)F)c1 [‘4388]
rCB1 binding pKi [95% CI] (CB1): 5.9 [5.7 – 6.0] | rCB1 binding Emax [SEM] (CB1): 113% | Ki (CB1; [4]): 1360 nM

Cc1nn(Cc2ccc(Cl)cc2)c(C)c1C(=O)OCC1CSc2ccccc2O1 (stereo not shown) [‘5463]
Emax (hCB1; [1]): 31% | Emax (hCB1; [2]): 32% | EC50 (hCB1; hCB1 Gi1 EC50 [95% CI]): 4940 nM | EC50 (hCB1; hCB1 GoB EC50 [95% CI]): 7470 nM | Emax (CB1): 88% | Ki (CB1; rCB1 binding Ki [95% CI]): 825 nM

Cc1nc(CC2CC2)oc1-c1nc(Cc2cc3c(cc2Br)OCO3)no1 [‘7019]
Ki (CB1; rCB1 binding Ki [95% CI]): 4040 nM

Cc1cc(C(=O)N(C)C(c2ccccc2)c2ccco2)nn1-c1cccc(C(F)(F)F)c1 (stereo not shown) [‘1082]
Emax (CB1): 94% | Ki (CB1; rCB1 binding Ki [95% CI]): 850 nM

CCCCC/C=C\C/C=C\C/C=C\C/C=C\CCCC(=O)OC(CO)CO [2-AG, reference compound]
hCB2 Gi1 pEC50 [95% CI] (hCB2; Gi1 sensor): 6.66 [6.6 – 6.7] | hCB2 Gi2 pEC50 [95% CI] (hCB2; Gi2 sensor): 7.0 [6.9 – 7.2] | hCB2 Gi2 Emax [95% CI] (hCB2; Gi2 sensor, normalized to CP-55,940): 78 [74 – 84] | hCB2 GoB pEC50 [95% CI] (hCB2; GoB sensor): 6.4 [6.3 – 6.5] | hCB2 GoB Emax [95% CI] (hCB2; [5]): 101 [98 – 104] | hCB2 Gz pEC50 [95% CI] (hCB2; Gz sensor): 5.7 [4.1 – 6.0] | hCB2 Gz Emax [95% CI] (hCB2; [6]): 96 [76 – 233] | EC50 (hCB2; read-out: hCB2 Barr2 + GRK2 EC50 [95% CI], ßarrestin-2 sensor with GRK2): 1850 nM | EC50 (hCB2; read-out: hCB2 Gi1 EC50 [95% CI], Gi1 sensor): 217 nM | EC50 (hCB2; read-out: hCB2 Gi2 EC50 [95% CI], Gi2 sensor): 96 nM | EC50 (hCB2; read-out: hCB2 GoB EC50 [95% CI], GoB sensor): 394 nM | EC50 (hCB2; read-out: hCB2 Gz EC50 [95% CI], Gz sensor): 2120 nM | hCB2 Barr2 + GRK2 pEC50 [95% CI] (hCB2; ßarrestin-2 sensor with GRK2): 5.7 [5.4 – 6.0] | hCB2 Barr2 + GRK2 Emax [95% CI] (hCB2; ßarrestin-2 sensor with GRK2, normalized to CP-55,940): 118 [104 – 140]

Cc1cc(C(=O)NC(C)(c2ccccc2)c2ccco2)nn1-c1cccc(C(F)(F)F)c1 (stereo not shown) [‘5806]
Emax (CB1): 100% | Ki (CB1; rCB1 binding Ki [95% CI]): 8 nM

N#Cc1cccc(OCc2ccoc2C(=O)OCC2CSc3ccccc3O2)c1 (stereo not shown) [compound 5424]
Emax (CB1): 104% | Ki (CB1; rCB1 binding Ki [95% CI]): 876 nM | % [3H]-CP-55,940 displacement (mean) from single point screen (CB1; listed as 7019_31): 80.66%

COC(=O)[C@@H]1[C@@H]2CC[C@@H]2CN1C(=O)c1cc(C)n(-c2cccc(C(F)(F)F)c2)n1 [‘6448]
hCB1 Gi1 pEC50 [95% CI] (hCB1; Gi1 sensor): 6.5 [6.4 – 6.5] | hCB1 Gi1 Emax [95% CI] (hCB1; Gi1 sensor, normalized to CP-55,940): 87 [86 – 88] | hCB1 GoB pEC50 [95% CI] (hCB1; GoB sensor): 6.5 [6.4 – 6.6] | hCB1 GoB Emax [95% CI] (hCB1; [5]): 90 [87 – 91] | hCB1 Gz pEC50 [95% CI] (hCB1; Gz sensor): 6.1 [5.9 – 6.4] | hCB1 Gz Emax [95% CI] (hCB1; [6]): 151 [130 –172] | EC50 (hCB1; read-out: hCB1 Gi1 EC50 [95% CI], Gi1 sensor): 345 nM | EC50 (hCB1; read-out: hCB1 GoB EC50 [95% CI], GoB sensor): 310 nM | EC50 (hCB1; read-out: hCB1 Gz EC50 [95% CI], Gz sensor): 728 nM | rCB1 binding pKi [95% CI] (CB1): 6.1 [5.9 – 6.3] | rCB1 binding Emax [SEM] (CB1): 103% | Ki (CB1; [4]): 866 nM

COC(=O)[C@@H]1[C@@H]2CCC[C@@H]2CN1C(=O)c1nn(-c2cccc(C(F)(F)F)c2)c2c1CCC2 [10_17]
% [3H]-CP-55,940 displacement (mean) from single point screen (CB1): 98.24%
